Results published in US8680122B2, “Substituted pyrrolones as allosteric modulators of glucokinase” (Janssen Pharmacetica N.V., priority 2005, dated 2014).
Where “and” joins values, the source holds several entries; their conditions need not be identical. Equal entries are not always repeated.

Legend:
Pancreas GK = target: T1, Pancreas GK (Homo sapiens, UniProt P35557); test: Glucokinase enzyme assay, pancreas GK; assay type: biochemical; conditions: for activation at 50 µM: percentage increase in GK activity above vehicle control, compound 50 μM, 12 mM glucose; for EC50: concentration that produces 50% activation above the vehicle control; for EC100%: concentration that produces 100% activation above the vehicle control
T1 construct: (His)6; made in house; host or cells: Escherichia coli
T1 sequence (P35557 1-465): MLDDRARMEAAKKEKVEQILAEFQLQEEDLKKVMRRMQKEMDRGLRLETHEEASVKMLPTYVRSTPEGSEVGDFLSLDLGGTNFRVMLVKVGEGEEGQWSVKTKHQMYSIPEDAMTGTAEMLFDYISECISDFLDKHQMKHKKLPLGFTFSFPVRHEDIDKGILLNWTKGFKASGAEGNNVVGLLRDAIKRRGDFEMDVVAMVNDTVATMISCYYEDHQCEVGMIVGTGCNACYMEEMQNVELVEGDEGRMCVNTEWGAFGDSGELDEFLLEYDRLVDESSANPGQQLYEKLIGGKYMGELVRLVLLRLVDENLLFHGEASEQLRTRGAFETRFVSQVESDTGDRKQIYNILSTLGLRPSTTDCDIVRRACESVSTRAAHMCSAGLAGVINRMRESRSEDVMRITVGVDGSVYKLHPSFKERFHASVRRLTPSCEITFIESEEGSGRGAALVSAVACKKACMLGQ
Excerpt: (§1) An enzymatic Glucokinase (GK) assay using purified recombinant human liver/pancreas enzyme was used to evaluate the effects of potential small molecule modulators.
(§2) In this assay, GK catalyzes glucose phosphorylation in the presence of ATP. The product of this reaction, glucose-6-phosphate, was then oxidized by an excess of glucose-6-phosphate dehydrogenase to produce gluconate-6-phosphate with concomitant reduction of nicotinamide adenine dinucleotide (NAD). […] Human GK (Liver/Pancreas) was expressed in Escherichia coli as a (His) 6-tagged fusion protein and was purified by metal chelate affinity chromatography. The assay was performed in a final incubation volume of 80 μl in a 96-well clear low UV absorption plates. The incubation mixture consisted of 25 mM HEPES, 2 mM MgSO4, 1 mM dithiothreotol (DTT), 1 mg/mL bovine serum albumin (BSA), 1 mM ATP, 1 mM NAD, and 12 mM glucose, 10 units per mL glucose-6-phosphate dehydrogenase, and +/−300 ng per mL GK. For determination of the affinity (Km) and Vmax, different concentrations of glucose ranging from 0.5 mM to 40 mM were used in the assay; see Grimsby, J., Sarabu, R.; Grippo, J. F.; et. al. Science 2003, 301, 370-373. Production of reduced NAD (Nicotinamide Adenine Dinucleotide) was measured as changes in absorption at 340 nm in 96-well plate reader (Envision model #2101 Multilabel Plate reader). % Activation @ 50 μM was calculated as the percentage increase in GK activity above the vehicle control with the effective concentration of the compound being 50 μM. EC50% (μM) was calculated as the effective concentration of the compound that produces 50% activation above the vehicle control, and EC100% (μM) was calculated as the effective concentration of the compound that produces 100% activation above the vehicle control.

Liver GK = target: T2, Liver GK (Homo sapiens, UniProt P35557); test: Glucokinase enzyme assay, liver GK; assay type: biochemical; conditions: for activation at 50 µM: percentage increase in GK activity above vehicle control, compound 50 μM, 12 mM glucose; for EC50: concentration that produces 50% activation above the vehicle control; for EC100%: concentration that produces 100% activation above the vehicle control
T2 construct: (His)6; made in house; host or cells: Escherichia coli
T2 sequence (P35557 1-466 isoform P35557-2): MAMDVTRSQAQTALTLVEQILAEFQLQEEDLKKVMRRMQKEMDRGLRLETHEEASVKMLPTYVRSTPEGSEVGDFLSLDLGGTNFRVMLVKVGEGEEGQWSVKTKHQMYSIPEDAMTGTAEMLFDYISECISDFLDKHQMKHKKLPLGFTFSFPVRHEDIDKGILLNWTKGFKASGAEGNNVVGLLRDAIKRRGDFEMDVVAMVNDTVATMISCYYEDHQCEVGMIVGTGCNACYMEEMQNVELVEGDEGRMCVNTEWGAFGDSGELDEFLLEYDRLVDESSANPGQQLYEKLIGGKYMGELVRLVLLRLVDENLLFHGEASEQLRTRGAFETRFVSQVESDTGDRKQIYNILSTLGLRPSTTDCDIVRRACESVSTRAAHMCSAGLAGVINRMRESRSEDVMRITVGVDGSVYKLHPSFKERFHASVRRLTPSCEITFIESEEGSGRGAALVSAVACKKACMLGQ
Excerpt: as §1, §2

Row | Structure (SMILES) | activation at 50 µM (Pancreas GK) [%] | activation at 50 µM (Liver GK) [%] | EC50 (Pancreas GK) | EC100% (Pancreas GK) [µM] | EC50 (Liver GK) | EC100% (Liver GK)
1 | COC(=O)c1ccc(NC(=O)CSC2C(C)=C(C)C(=O)N2Cc2ccc(OC)cc2)nc1 (stereo not drawn) [Compound 1, 6-{2-[1-(4-Methoxy-benzyl)-3,4-dimethyl-5-oxo-2,5-dihydro-1H-pyrrol-2-ylsulfanyl]-acetylamino}-nicotinic acid methyl ester] | 287 |  | 640 nM | 2.23 | 390 nM and 260 nM | 1.46 µM
2 | COc1ccc(CN2C(=O)C(C)=C(C)C2SCC(=O)Nc2nccs2)cc1 (stereo not drawn) [Compound 2, 2[1-(4-Methoxy-benzyl)-3,4-dimethyl-5-oxo-2,5-dihydro-1H-pyrrol-2-ylsulfanyl]-N-thiazol-2-yl-acetamide] |  | 169 |  |  | 9400 nM | 
3 | COc1ccc(CN2C(=O)C(c3ccccc3)=CC2SCC(=O)Nc2nccs2)cc1 (stereo not drawn) [Compound 3, 2-[1-(4-Methoxy-benzyl)-5-oxo-4-phenyl-2,5-dihydro-1H-pyrrol-2-ylsulfanyl]-N-thiazol-2-yl-acetamide] |  | 64.9 |  |  |  | 
4 | COC(=O)c1ccc(NC(=O)CSC2C(c3ccccc3)=C(c3ccccc3)C(=O)N2Cc2ccc(OC)cc2)nc1 (stereo not drawn) [Compound 4] |  |  |  |  | 19800 nM and 24500 nM | 37.3 µM and 30.4 µM
5 | COc1ccc(CN2C(=O)C(C)=C(C)C2SCC(=O)Nc2ccccn2)cc1 (stereo not drawn) [Compound 5, 2-[1-(4-Methoxy-benzyl)-3,4-dimethyl-5-oxo-2,5-dihydro-1H-pyrrol-2-ylsulfanyl]-N-pyridin-2-yl-acetamide] |  | 222 |  |  | 3300 nM | 8.3 µM
6 | COc1ccc(CN2C(=O)C(C)=C(C)C2SCC(=O)Nc2cnccn2)cc1 (stereo not drawn) [Compound 6, 2-[1-(4-Methoxy-benzyl)-3,4-dimethyl-5-oxo-2,5-dihydro-1H-pyrrol-2-ylsulfanyl]-N-pyrazin-2-yl-acetamide] |  | 175 |  |  | 6300 nM | 20.1 µM
7 | CCOC(=O)Cc1csc(NC(=O)CSC2C(C)=C(C)C(=O)N2Cc2ccc(OC)cc2)n1 (stereo not drawn) [Compound 7, (2-{2-[1-(4-Methoxy-benzyl)-3,4-dimethyl-5-oxo-2,5-dihydro-1H-pyrrol-2-ylsulfanyl]-acetylamino}-thiazol-4-yl)-acetic acid ethyl ester] |  | 114 |  |  | 11600 nM | 38.9 µM
8 | COc1ccc(CN2C(=O)C(C)=C(C)C2SCC(=O)Nc2ccc(Cl)cn2)cc1 (stereo not drawn) [Compound 8, N-(5-Chloro-pyridin-2-yl)-2-[1-(4-methoxy-benzyl)-3,4-dimethyl-5-oxo-2,5-dihydro-1H-pyrrol-2-ylsulfanyl]-acetamide] |  | 169 |  |  | 2720 nM | 9.77 µM
9 | COc1ccc(CN2C(=O)C(C)=C(C)C2SCC(=O)Nc2ccc(C)cn2)cc1 (stereo not drawn) [Compound 9, 2-[1-(4-Methoxy-benzyl)-3,4-dimethyl-5-oxo-2,5-dihydro-1H-pyrrol-2-ylsulfanyl]-N-(5-methyl-pyridin-2-yl)-acetamide] |  | 215 |  |  | 1400 nM | 4.9 µM
10 | COc1ccc(CN2C(=O)C(C)=C(C)C2SCC(=O)Nc2ccccn2)c(OC)c1 (stereo not drawn) [Compound 10, 2-[1-(2,4-Dimethoxy-benzyl)-3,4-dimethyl-5-oxo-2,5-dihydro-1H-pyrrol-2-ylsulfanyl]-N-pyridin-2-yl-acetamide] |  | 128 |  |  | 12200 nM | 39.92 µM
11 | COc1ccc(CN2C(=O)C(C)=C(C)C2SCC(=O)Nc2ccccn2)cc1OC (stereo not drawn) [Compound 11, 2-[1-(3,4-Dimethoxy-benzyl)-3,4-dimethyl-5-oxo-2,5-dihydro-1H-pyrrol-2-ylsulfanyl]-N-pyridin-2-yl-acetamide] |  | 243 |  |  | 2410 nM | 5.83 µM

The next lines start with the values.

Row | activation at 50 µM (Pancreas GK) [%] | activation at 50 µM (Liver GK) [%] | EC50 (Pancreas GK) | EC100% (Pancreas GK) [µM] | EC50 (Liver GK) | EC100% (Liver GK) | Structure (SMILES)
12 | 24 | 37 |  |  |  |  | COc1ccc(CN2C(=O)C(C)=C(C)[C@H]2S[C@H](C)C(=O)Nc2ccccn2)cc1 (stereo in doubt) [Compound 32, 2-[1-(4-Methoxy-benzyl)-3,4-dimethyl-5-oxo-2,5-dihydro-1H-pyrrol-2-ylsulfanyl]-N-pyridin-2-yl-propionamide]
13 |  | 198 |  |  | 2900 nM | 8.72 µM | CC1=C(C)C(SCC(=O)Nc2ccccn2)N(Cc2ccc(F)cc2)C1=O (stereo not drawn) [Compound 12, 2-[1-(4-Fluoro-benzyl)-3,4-dimethyl-5-oxo-2,5-dihydro-1H-pyrrol-2-ylsulfanyl]-N-pyridin-2-yl-acetamide]
14 |  | 122 |  |  | 10000 nM | 37.08 µM | COc1ccc(CN2C(=O)C(C)=CC2SCC(=O)Nc2ccccn2)cc1 (stereo not drawn) [Compound 15, 2-[1-(4-Methoxy-benzyl)-4-methyl-5-oxo-2,5-dihydro-1H-pyrrol-2-ylsulfanyl]-N-pyridin-2-yl-acetamide]
15 |  | 166 |  |  | 6760 nM | 17.01 µM | CC1=C(C)C(SCC(=O)Nc2ccccn2)N(Cc2ccc(OC(F)F)cc2)C1=O (stereo not drawn) [Compound 16, 2-[1-(4-Difluoromethoxy-benzyl)-3,4-dimethyl-5-oxo-2,5-dihydro-1H-pyrrol-2-ylsulfanyl]-N-pyridin-2-yl-acetamide]
16 | 167 | 217 | 3510 nM | 12.02 | 1130 nM | 3.61 µM | COc1ccc(CN2C(=O)C(C)=C(C)C2SCC(=O)Nc2ccc(C(N)=O)cn2)cc1 (stereo not drawn) [Compound 18]
17 |  |  | 2500 nM and 1600 nM |  |  |  | COc1ccc(CN2C(=O)C(C)=C(C)C2SCC(=O)Nc2ccc(C(=O)O)cn2)cc1 (stereo not drawn) [Compound 33]
18 | 163 |  | 2500 nM | 12 |  |  | CC1=C(C)C(SCC(=O)Nc2ccccn2)N(Cc2ccc(N(C)C)cc2)C1=O (stereo not drawn) [Compound 34, 2-[1-(4-Dimethylamino-benzyl)-3,4-dimethyl-5-oxo-2,5-dihydro-1H-pyrrol-2-ylsulfanyl]-N-pyridin-2-yl-acetamide]
19 | 156 |  | 980 nM | 5.3 |  |  | COC(=O)c1ccc(NC(=O)CSC2C(C)=C(C)C(=O)N2Cc2ccc(F)cc2)nc1 (stereo not drawn) [Compound 35, 6-{2-[1-(4-Fluoro-benzyl)-3,4-dimethyl-5-oxo-2,5-dihydro-1H-pyrrol-2-ylsulfanyl]-acetylamino}-nicotinic acid methyl ester]
20 |  |  | 2500 nM | 18 |  |  | COC(=O)c1ccc(NC(=O)CSC2C(C)=C(C)C(=O)N2Cc2ccc(OC(F)F)cc2)nc1 (stereo not drawn) [Compound 36, 6-{2-[1-(4-Difluoromethoxy-benzyl)-3,4-dimethyl-5-oxo-2,5-dihydro-1H-pyrrol-2-ylsulfanyl]-acetylamino}-nicotinic acid methyl ester]
21 | 209 |  | 1090 nM | 1.09 |  |  | COC(=O)c1ccc(NC(=O)CSC2C(C)=C(C)C(=O)N2Cc2ccc3c(c2)CCO3)nc1 (stereo not drawn) [Compound 37]
22 |  |  | 1090 nM | 8.9 |  |  | COC(=O)c1ccc(NC(=O)CSC2C(C)=C(C)C(=O)N2Cc2cccs2)nc1 (stereo not drawn) [Compound 38, 6-[2-(3,4-Dimethyl-5-oxo-1-thiophen-2-ylmethyl-2,5-dihydro-1H-pyrrol-2-ylsulfanyl)-acetylamino]-nicotinic acid methyl ester]
23 |  |  | 1140 nM | 5.3 |  |  | COC(=O)c1ccc(NC(=O)CSC2C(C)=C(C)C(=O)N2Cc2ccc(OC)c(OC)c2)nc1 (stereo not drawn) [Compound 39]
24 |  |  | 2300 nM | 19 |  |  | COC(=O)c1ccc(NC(=O)CSC2C(C)=C(C)C(=O)N2Cc2cc(OC)cc(OC)c2)nc1 (stereo not drawn) [Compound 40]
